Read-outs that look alike come from different tables or passages of the source.
Experiments:
[1] = system: HCT-116 cells; assay: HCT-116 cell proliferation assay (resazurin); format: cell-based; details: Homo sapiens
Protocol: HCT-116 cells (catalog #CCL-247) are obtained from the American Type Culture Collect (ATCC, Manassas, VA). Briefly, cells are grown in McCoy's 5A supplemented with 10% characterized fetal bovine serum (Invitrogen, Carlsbad, CA) and 1% Penicillin/Streptomycin/L-Glutamine at 37° C., 5% CO2, and 95% humidity. Cells are expanded until reaching 70-95% confluency at which point they are sub-cultured or harvested for assay use. A serial dilution of test compound is dispensed into a 384-well black clear bottom plate in triplicate. 375 cells are added per well in 50 μL complete growth medium in the 384-well plate. Plates are incubated for 67 to 72 h at 37° C., 5% CO2, and 95% humidity. At the end of the incubation, 40 μL of a […] solution of resazurin (Sigma, St. Louis, MO) in PBS is added to each well of the plate and plates are incubated for an additional 4 to 5 h at 37° C., 5% CO2, and 95% humidity. Plates are read on a Synergy2 or equivalent reader (Biotek, Winooski, VT) using an excitation of 540 nm and an emission of 600 nm. Data is analyzed using Prism software (Graphpad, San Diego, CA) to calculate IC50 values.

[2] = biological target: T1, C-Raf kinase (Homo sapiens, UniProt P04049, Y340D/Y341D); assay: Biochemical assay for C-Raf (coupled pyruvate kinase/lactate dehydrogenase)
T1 construct: C-Raf residues 306-end; Y340D, Y341D with N-; purchased Sigma
T1 sequence (P04049 307-648 Y340D/Y341D): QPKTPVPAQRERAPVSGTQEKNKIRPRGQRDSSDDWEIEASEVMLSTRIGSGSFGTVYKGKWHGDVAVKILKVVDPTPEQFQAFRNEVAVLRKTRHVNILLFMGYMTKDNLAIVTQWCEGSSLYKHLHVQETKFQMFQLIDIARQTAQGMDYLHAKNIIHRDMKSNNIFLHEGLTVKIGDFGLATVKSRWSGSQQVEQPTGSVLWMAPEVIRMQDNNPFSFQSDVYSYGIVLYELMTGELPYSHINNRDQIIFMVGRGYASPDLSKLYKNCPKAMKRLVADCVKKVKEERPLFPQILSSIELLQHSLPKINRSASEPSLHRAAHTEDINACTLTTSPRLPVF

[3] = system: HPAF-II cells; assay: HPAF-II cell proliferation assay (resazurin); format: cell-based; details: Homo sapiens
Protocol: (§1) HPAF-II cells (catalog #CRL-1997) are obtained from the American Type Culture Collect (ATCC, Manassas, VA). Briefly, cells are grown in Minimum Essential Media supplemented with 10% characterized fetal bovine serum (Invitrogen, Carlsbad, CA) and 1% Penicillin/Streptomycin/L-Glutamine at 37° C., 5% CO2, and 95% humidity. Cells are expanded until reaching 70-95% confluency at which point they are sub-cultured or harvested for assay use. A serial dilution of test compound is dispensed into a 384-well black clear bottom plate in triplicate. 750 cells are added per well in 50 μL complete growth medium in the 384-well plate. Plates are incubated for 115 to 120 h at 37° C., 5% CO2, and 95% humidity. At the end of the incubation, 40 μL of a […] solution of resazurin (Sigma, St. Louis, MO) in PBS is added to each well of the plate and plates are incubated for an additional 18 to 24 h at 37° C., 5% CO2, and 95% humidity. Plates are read on a Synergy2 or equivalent reader (Biotek, Winooski, VT) using an excitation of 540 nm and an emission of 600 nm. Data is analyzed using Prism software (Graphpad, San Diego, CA) to calculate IC50 values.

[4] = biological target: T2, Porcine Brain Tubulin (Sus scrofa, UniProt P02550+P02554); assay: Biochemical tubulin polymerization assay; details: Table 4; read-out: Tubulin Biochem IC50
T2 construct: Porcine Brain Tubulin (T240); purchased Cytoskeleton, Inc T240; BK011P; host or cells: porcine brain
T2 sequence (P02550 whole entry): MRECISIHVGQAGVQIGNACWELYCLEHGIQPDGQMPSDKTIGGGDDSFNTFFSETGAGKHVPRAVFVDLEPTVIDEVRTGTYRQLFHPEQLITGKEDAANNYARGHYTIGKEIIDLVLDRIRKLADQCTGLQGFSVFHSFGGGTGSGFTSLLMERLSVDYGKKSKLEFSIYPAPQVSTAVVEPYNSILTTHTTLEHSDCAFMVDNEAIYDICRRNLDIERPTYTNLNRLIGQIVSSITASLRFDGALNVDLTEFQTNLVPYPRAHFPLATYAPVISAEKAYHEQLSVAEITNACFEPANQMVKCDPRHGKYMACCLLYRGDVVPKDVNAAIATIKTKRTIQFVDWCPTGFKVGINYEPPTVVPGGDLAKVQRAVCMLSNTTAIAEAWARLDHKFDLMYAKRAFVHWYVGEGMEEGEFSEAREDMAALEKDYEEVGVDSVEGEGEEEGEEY
T2 sequence (P02554 whole entry): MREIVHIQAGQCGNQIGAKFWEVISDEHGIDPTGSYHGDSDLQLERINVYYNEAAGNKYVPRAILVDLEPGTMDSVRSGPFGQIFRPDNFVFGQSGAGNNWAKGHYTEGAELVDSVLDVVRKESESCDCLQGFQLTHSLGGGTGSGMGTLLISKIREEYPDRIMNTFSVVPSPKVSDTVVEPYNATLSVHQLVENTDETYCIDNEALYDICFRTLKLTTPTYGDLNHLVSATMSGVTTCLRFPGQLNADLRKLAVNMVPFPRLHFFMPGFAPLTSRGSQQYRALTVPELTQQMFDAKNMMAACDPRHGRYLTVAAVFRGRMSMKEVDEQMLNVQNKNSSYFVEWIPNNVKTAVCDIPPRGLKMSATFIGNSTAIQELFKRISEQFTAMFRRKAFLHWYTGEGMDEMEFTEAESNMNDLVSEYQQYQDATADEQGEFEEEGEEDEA

[5] = biological target: T3, B-Raf kinase (Homo sapiens, UniProt P15056); assay: Biochemical assay for B-Raf (coupled pyruvate kinase/lactate dehydrogenase)
T3 construct: purchased Sigma
T3 sequence (P15056 416-766): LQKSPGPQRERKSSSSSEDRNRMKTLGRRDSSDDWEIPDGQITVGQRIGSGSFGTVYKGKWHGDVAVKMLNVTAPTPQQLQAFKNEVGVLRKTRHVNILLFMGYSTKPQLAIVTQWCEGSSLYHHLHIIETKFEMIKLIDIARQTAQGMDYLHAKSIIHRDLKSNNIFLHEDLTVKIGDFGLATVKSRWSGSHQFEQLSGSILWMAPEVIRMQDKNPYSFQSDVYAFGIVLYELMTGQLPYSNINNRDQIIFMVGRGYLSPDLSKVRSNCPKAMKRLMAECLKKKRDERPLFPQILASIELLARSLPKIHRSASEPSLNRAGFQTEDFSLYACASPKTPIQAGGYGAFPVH

[6] = system: tubulin polymerization in HCT-116 cells; assay: Cellular tubulin polymerization assay (pellet/supernatant a-tubulin, HCT-116 cells); format: cell-based; details: Table 4, HCT-116 cells; read-out: Tubulin Cellular IC50
Protocol: HCT-116 cells (catalog #CCL-247) are obtained from the American Type Culture Collect (ATCC, Manassas, VA). Briefly, cells are grown in McCoy's 5A supplemented with 10% characterized fetal bovine serum (Invitrogen, Carlsbad, CA) and 1% Penicillin/Streptomycin/L-Glutamine at 37° C., 5% CO2, and 95% humidity. Cells are expanded until reaching 70-95% confluency at which point they are sub-cultured or harvested for assay use. 450000 cells are added per well in 1500 μL complete growth medium in a tissue culture treated, 12-well plate. Plates are incubated for 18 to 24 h at 37° C., 5% CO2, and 95% humidity. At the end of the incubation, 2000 μL of base culture media is added to each well, followed by a serial dilution of compound. Plates are incubated for an additional 1 h at 37° C., 5% CO2, and 95% humidity. Lysates are generated by the addition of 100 μL Lysis and Microtubule Stabilization Buffer 1 (LMS01, Cytoskeleton Inc, Denver, CO) supplemented with GTP (BST06, Cytoskeleton Inc), ATP (BSA04, Cytoskeleton Inc), and Protease Inhibitor Cocktail Stock (PIC02, Cytoskeleton Inc). Cells are scraped off wells using a rubber cell scraper and collected in a clean 96-well plate. Lysates are centrifuged at 1000×g, 37° C. for 10 min and supernatant fraction is placed into an additional 96-well plate. The remaining pellet fraction is reconstituted in 100 μL LMS01 buffer and sonicated for 10 min. Pellet and Supernatant fractions are probed for a-tubulin via western blot analysis on the Jess System or equivalent (Bio-techne, Minneapolis, MN). Data is analyzed using Prism software (Graphpad, San Diego, CA) to calculate IC50 values.

[7] = system: Pa16c cells; assay: Pa16c cell proliferation assay (resazurin); format: cell-based; details: Table 2, inhibition of cell proliferation
Protocol: as §1, with “Pa16c” for “HPAF-II”, “cells” for “cells (catalog #CRL-1997)”, “Dr. Channing Der, University of North Carolina at Chapel Hill.” for “the American Type Culture Collect (ATCC, Manassas, VA).”, “Dulbecco's Modified Eagle Medium” for “Minimum Essential Media”, “67” for “115”, “72” for “120”

[8] = system: MiaPaca-2 cells; assay: MiaPaca-2 cell proliferation assay (resazurin); format: cell-based; details: Homo sapiens, MIA PaCa-2; Table 2, inhibition of cell proliferation; read-out: MiaPaca-2
Protocol: MiaPaca-2 cells (catalog #CRL-1420) are obtained from the American Type Culture Collect (ATTC, Manassas, VA). Briefly, cells were grown in DMVEM supplemented with […] fetal bovine serum (Invitrogen, Carlsbad, CA), 2.5% New Zealand sourced horse serum and 1% Penicillin/Streptomycin/L-Glutamine at 37° C., […], and […]. Cells are expanded until reaching […] at which point they are sub-cultured or harvested for assay use. For assays completed in 96-well plates, a serial dilution of test compound is dispensed into a 96-well black clear bottom plate in triplicate. Three thousand cells are added per well in 200 μL complete growth medium in the 96-well plate. Plates are incubated for 67 to 72 h at 37° C., 5% CO2, and 95% humidity. At the end of the incubation, 40 μL of a […] solution of resazurin (Sigma, St. Louis, MO) in PBS is added to each well of the plate and plates are incubated for an additional 5 to 6 h at 37° C., 5% CO2, and 95% humidity. For 384-well assays, a threefold, 8-point serial dilution of compound was spotted column wise into a 384 well black, clear bottom, tissue culture treated plate using the Beckman Coulter Echo 650. Likewise, a threefold, 8-point serial dilution of cobimetinib was spotted row wise into the 384 well black, clear bottom plate containing compound. DMSO concentration was constant across all wells at 0.4%. Seven hundred fifty cells are added per well in 50 μL complete growth medium in each 384-well plate. Plates are incubated for 67 to 72 h at 37° C., 5% CO2, and 95% humidity. At the end of the incubation, 10 μL of a 440 μM solution of resazurin (Sigma, St. Louis, MO) in PBS is added to each well of the plate and plates are incubated for an additional 4 to 6 h at 37° C., 5% CO2, and 95% humidity. Plates are read on a Synergy2 or equivalent reader (Biotek, Winooski VT) using an excitation of 540 nm and an emission of 600 nm. Data is analyzed using Prism software (Graphpad, San Diego, CA) to calculate IC50 values.

[9] = HCT-116, Table 4, read-out: HCT-116 IC50
[10] = HPAF-II, Table 4, read-out: HPAF-II IC50
[11] = Table 2, inhibition of cell proliferation, read-out: HCT-116
[12] = Table 1, inhibition of biochemical activity, read-out: CRAF
[13] = Table 2, inhibition of cell proliferation, read-out: HPAF-II
[14] = Table 1, inhibition of biochemical activity, read-out: BRAF

IC50 [1, 9]	IC50 ([2]; Table 4, read-out: CRAF IC50)	IC50 [4]	IC50 ([5]; Table 4, read-out: BRAF IC50)	IC50 [6]	IC50 [1, 11]	IC50 [2, 12]	IC50 [5, 14]	IC50 [8]	Structure (SMILES)	IC50 [3, 10]	IC50 [3, 13]	IC50 [7]
1 to 10 µM	< 0.1 µM	> 100 µM	< 0.1 µM						Cc1cc(-c2cc(NC(=O)c3ccnc(C(C)(C)F)c3)ccc2C)cc(-c2ccnc(C(N)=O)c2)n1 [reference compound]	1 to 10 µM		
0.5 to 1 µM	< 0.1 µM	> 100 µM	< 0.1 µM	1 to 10 µM					CNC(=O)c1cc(-c2cc(-c3cc(NC(=O)c4ccnc(C(C)(C)F)c4)ccc3C)ccn2)ccn1 [reference compound]	1 to 10 µM		
0.5 to 1 µM	< 0.1 µM	> 100 µM							CNC(=O)c1cc(-c2cc(-c3cc(NC(=O)c4ccnc(C(C)(C)C#N)c4)c(F)cc3C)ccn2)ccn1 [reference compound]	1 to 10 µM		
					1 to 10 µM	< 0.1 µM	< 0.1 µM	1 to 10 µM	CNC(=O)c1cc(-c2cc(-c3cc(NC(=O)c4cncc(C(F)(F)F)c4)ccc3C)ccn2)ccn1 [Example 12]		1 to 10 µM	1 to 10 µM
					< 0.1 µM	< 0.1 µM	< 0.1 µM	0.1 to 0.5 µM	CNC(=O)c1cc(-c2cc(-c3cc(NC(=O)c4cc(C(F)(F)F)cnn4)ccc3C)cc(N[C@H](C)CO)n2)ccn1 [Example 29]		0.1 to 0.5 µM	0.1 to 0.5 µM
					0.1 to 0.5 µM	< 0.1 µM	< 0.1 µM	0.5 to 1 µM	CNC(=O)c1cc(-c2cc(-c3cc(NC(=O)c4cc(C(F)(F)F)cnn4)ccc3C)cc(N)n2)ccn1 [Example 48]		0.1 to 0.5 µM	1 to 10 µM
					0.5 to 1 µM	< 0.1 µM	< 0.1 µM	0.5 to 1 µM	CNC(=O)c1cc(-c2cncc(-c3cc(NC(=O)c4cc(C(F)(F)F)cnn4)ccc3C)c2)ccn1 [Example 16]		1 to 10 µM	1 to 10 µM

From patent publication US20260176260A1, “DUAL RAF AND TUBULIN INHIBITORS AND METHODS OF USE THEREOF” (Deciphera Pharmaceuticals, LLC, priority 2023, published 2026)
